From ChEMBL document CHEMBL3046109, “A Method for Monitoring the Sensitivity of Botrytis cinerea to Mepanipyrim” (2004)

What was measured:
Assay type in all cases: functional
[1] = system: Botrytis cinerea; experiment: Fungicidal activity against anilinopyrimidine-resistant Botryotinia fuckeliana CH15.93 isolated from grape plant assessed as inhibition of mycelial growth at 100 mg/l after 4 days; conditions: CH15.93, 96 h, read-out: GI
[2] = system: Botrytis cinerea; experiment: Fungicidal activity against anilinopyrimidine-sensitive Botryotinia fuckeliana KU-59 isolated from grape plant assessed as inhibition of mycelial growth at 0.1 mg/l after 4 days; conditions: KU-59, 96 h, read-out: GI
[3] = system: Botrytis cinerea; experiment: Fungicidal activity against anilinopyrimidine-sensitive Botryotinia fuckeliana KU-01 isolated from grape plant assessed as inhibition of mycelial growth at 0.1 mg/l after 4 days; conditions: KU-01, 96 h, read-out: GI
[4] = system: Botrytis cinerea; experiment: Fungicidal activity against anilinopyrimidine-resistant Botryotinia fuckeliana CH15.93 isolated from grape plant assessed as inhibition of mycelial growth at 0.1 mg/l after 4 days; conditions: CH15.93, 96 h, read-out: GI
[5] = system: Botrytis cinerea; experiment: Fungicidal activity against anilinopyrimidine-resistant Botryotinia fuckeliana CH164.94 isolated from grape plant assessed as inhibition of mycelial growth at 100 mg/l after 4 days; conditions: CH164.94, 96 h, read-out: GI
[6] = system: Botrytis cinerea; experiment: Fungicidal activity against anilinopyrimidine-sensitive Botryotinia fuckeliana KU-59 isolated from grape plant assessed as inhibition of mycelial growth at 3 mg/l after 4 days; conditions: KU-59, 96 h, read-out: GI
[7] = system: Botrytis cinerea; experiment: Fungicidal activity against anilinopyrimidine-resistant Botryotinia fuckeliana CH12.92 infected in strawberry fruit assessed as inhibition of mycelial growth at 50 mg/l treated 2-3 hr before challenge measured after 5 days; conditions: read-out: GI
[8] = system: Botrytis cinerea; experiment: Fungicidal activity against anilinopyrimidine-resistant Botryotinia fuckeliana CH164.94 isolated from grape plant assessed as inhibition of mycelial growth at 10 mg/l after 4 days; conditions: CH164.94, 96 h, read-out: GI
[9] = system: Botrytis cinerea; experiment: Fungicidal activity against anilinopyrimidine-resistant Botryotinia fuckeliana CH15.93 infected in strawberry fruit assessed as inhibition of mycelial growth at 200 mg/l treated 2-3 hr before challenge measured after 5 days; conditions: read-out: GI
[10] = system: Botrytis cinerea; experiment: Fungicidal activity against anilinopyrimidine-resistant Botryotinia fuckeliana CH164.94 infected in strawberry fruit assessed as inhibition of mycelial growth at 200 mg/l treated 2-3 hr before challenge measured after 5 days; conditions: read-out: GI
[11] = system: Botrytis cinerea; experiment: Fungicidal activity against anilinopyrimidine-resistant Botryotinia fuckeliana CH12.92 isolated from grape plant assessed as inhibition of mycelial growth at 0.1 mg/l after 4 days; conditions: CH12.92, 96 h, read-out: GI
[12] = system: Botrytis cinerea; experiment: Fungicidal activity against anilinopyrimidine-resistant Botryotinia fuckeliana CH15.93 infected in strawberry fruit assessed as inhibition of mycelial growth at 100 mg/l treated 2-3 hr before challenge measured after 5 days; conditions: read-out: GI
[13] = system: Botrytis cinerea; experiment: Fungicidal activity against anilinopyrimidine-resistant Botryotinia fuckeliana CH15.93 isolated from grape plant assessed as inhibition of mycelial growth at 3 mg/l after 4 days; conditions: CH15.93, 96 h, read-out: GI
[14] = system: Botrytis cinerea; experiment: Fungicidal activity against anilinopyrimidine-sensitive Botryotinia fuckeliana KU-01 isolated from grape plant assessed as inhibition of mycelial growth at 0.3 mg/l after 4 days; conditions: KU-01, 96 h, read-out: GI
[15] = system: Botrytis cinerea; experiment: Fungicidal activity against anilinopyrimidine-resistant Botryotinia fuckeliana CH164.94 isolated from grape plant assessed as inhibition of mycelial growth at 30 mg/l after 4 days; conditions: CH164.94, 96 h, read-out: GI
[16] = system: Botrytis cinerea; experiment: Fungicidal activity against anilinopyrimidine-sensitive Botryotinia fuckeliana KU-59 infected in strawberry fruit assessed as inhibition of mycelial growth at 50 mg/l treated 2-3 hr before challenge measured after 5 days; conditions: read-out: GI
[17] = system: Botrytis cinerea; experiment: Fungicidal activity against anilinopyrimidine-sensitive Botryotinia fuckeliana KU-01 isolated from grape plant assessed as inhibition of mycelial growth at 1 mg/l after 4 days; conditions: KU-01, 96 h, read-out: GI
[18] = system: Botrytis cinerea; experiment: Fungicidal activity against anilinopyrimidine-resistant Botryotinia fuckeliana CH15.93 isolated from grape plant assessed as inhibition of mycelial growth at 10 mg/l after 4 days; conditions: CH15.93, 96 h, read-out: GI
[19] = system: Botrytis cinerea; experiment: Fungicidal activity against anilinopyrimidine-resistant Botryotinia fuckeliana CH164.94 isolated from grape plant assessed as inhibition of mycelial growth at 0.1 mg/l after 4 days; conditions: CH164.94, 96 h, read-out: GI
[20] = system: Botrytis cinerea; experiment: Fungicidal activity against anilinopyrimidine-resistant Botryotinia fuckeliana CH164.94 infected in strawberry fruit assessed as inhibition of mycelial growth at 50 mg/l treated 2-3 hr before challenge measured after 5 days; conditions: read-out: GI
[21] = system: Botrytis cinerea; experiment: Fungicidal activity against anilinopyrimidine-resistant Botryotinia fuckeliana CH12.92 infected in strawberry fruit assessed as inhibition of mycelial growth at 200 mg/l treated 2-3 hr before challenge measured after 5 days; conditions: read-out: GI
[22] = system: Botrytis cinerea; experiment: Fungicidal activity against anilinopyrimidine-sensitive Botryotinia fuckeliana KU-59 isolated from grape plant assessed as inhibition of mycelial growth at 10 mg/l after 4 days; conditions: KU-59, 96 h, read-out: GI
[23] = system: Botrytis cinerea; experiment: Fungicidal activity against anilinopyrimidine-resistant Botryotinia fuckeliana CH164.94 infected in strawberry fruit assessed as inhibition of mycelial growth at 100 mg/l treated 2-3 hr before challenge measured after 5 days; conditions: read-out: GI
[24] = system: Botrytis cinerea; experiment: Fungicidal activity against anilinopyrimidine-resistant Botryotinia fuckeliana CH12.92 infected in strawberry fruit assessed as inhibition of mycelial growth at 100 mg/l treated 2-3 hr before challenge measured after 5 days; conditions: read-out: GI
[25] = system: Botrytis cinerea; experiment: Fungicidal activity against anilinopyrimidine-sensitive Botryotinia fuckeliana KU-59 isolated from grape plant assessed as inhibition of mycelial growth at 30 mg/l after 4 days; conditions: KU-59, 96 h, read-out: GI

**Q.** For `CC#Cc1cc(C)nc(Nc2ccccc2)n1` [MEPANIPYRIM], which inhibition of growth at 100 µg/mL [1] is on record?
**A.** 75.4%

**Q.** And the inhibition of growth at 0.1 µg/mL [2]?
**A.** 86.4%

**Q.** What about the inhibition of growth at 0.1 µg/mL [3] of the same compound?
**A.** 75.5%

**Q.** And the inhibition of growth at 0.1 µg/mL [4]?
**A.** 0%

**Q.** What about the inhibition of growth at 100 µg/mL [5] of the same compound?
**A.** 70.8%

**Q.** What about the inhibition of growth at 3 µg/mL [6] of the same compound?
**A.** 100%

**Q.** What about the inhibition of growth at 50 µg/mL [7] of the same compound?
**A.** 0%

**Q.** And the inhibition of growth at 10 µg/mL [8]?
**A.** 67.1%

**Q.** What about the inhibition of growth at 200 µg/mL [9] of the same compound?
**A.** 0%

**Q.** What about the inhibition of growth at 200 µg/mL [10] of the same compound?
**A.** 0%

**Q.** What about the inhibition of growth at 0.1 µg/mL [11] of the same compound?
**A.** 0%

**Q.** And the inhibition of growth at 100 µg/mL [12]?
**A.** 0%

**Q.** And the inhibition of growth at 3 µg/mL [13]?
**A.** 65.7%

**Q.** What about the inhibition of growth at 0.3 µg/mL [14] of the same compound?
**A.** 100%

**Q.** And the inhibition of growth at 30 µg/mL [15]?
**A.** 66.2%

**Q.** What about the inhibition of growth at 50 µg/mL [16] of the same compound?
**A.** 100%

**Q.** What about the inhibition of growth at 1 µg/mL [17] of the same compound?
**A.** 100%

**Q.** And the inhibition of growth at 10 µg/mL [18]?
**A.** 72.6%

**Q.** And the inhibition of growth at 0.1 µg/mL [19]?
**A.** 0%

**Q.** And the inhibition of growth at 50 µg/mL [20]?
**A.** 0%

**Q.** What about the inhibition of growth at 200 µg/mL [21] of the same compound?
**A.** 0%

**Q.** What about the inhibition of growth at 10 µg/mL [22] of the same compound?
**A.** 100%

**Q.** What about the inhibition of growth at 100 µg/mL [23] of the same compound?
**A.** 0%

**Q.** And the inhibition of growth at 100 µg/mL [24]?
**A.** 0%

**Q.** And the inhibition of growth at 30 µg/mL [25]?
**A.** 100%
